Experimental data taken from patent US20250295627A1 (Leibniz-Institut Fuer Neurobiologie, priority 2022, published 2025).

Legend:
pCREB [1] = experiment: Aβ-induced CREB shutoff (nuclear pCREB) in hippocampal primary neurons; type: cell-based, rat
Procedure: Hippocampal and cortical cultures were prepared from Wistar rat embryos (E18) of mixed sex as described previously (Spilker et al., 2016). Briefly, dissected were digested for 15 min with trypsin at 37° C. Neurons were plated on plastic 12-well dishes (Greiner) on glass coverslips coated with poly-L-lysine (Sigma-Aldrich) at a density of 60 000 cells/well in DMEM medium (Gibco, Thermo Fisher Scientific) supplemented with 10% FCS, 1× penicillin/streptomycin, and 2 mM glutamine. After 1 h incubation (at the 37° C., 5% CO2, 95% humidity) cells were kept in BrainPhys medium supplemented with 1% SM1 (Stemmcell Technologies), 0.5 mM Glutamine (Gibco) at 37° C., 5% CO2 and 95% humidity. […]
For quantitation of nuclear staining intensity (pCREB or CREB) somatic regions were sequentially scanned using the 63× objective (Leica) in both: Leica TCS SP8-STED and Leica TCS SP5 systems. […] Unprocessed images were analysed using Fiji/ImageJ software (Schindelin et al., 2012). For visualization of the quantified channel a fire look-up table (LUT) was used. Synaptic density was quantified in secondary dendrites using Fiji/ImageJ (Schindelin et al., 2012). […] Intensity of the GluA1 channel was measured in ROIs defined by a Shank3 mask as a readout for surface AMPAR expression.

[2] = test system: hippocampal primary neurons; experiment: Whole-cell voltage-clamp recording of mEPSCs; type: cell-based, rat
TBA2.1 mice = experiment: Neuronal loss (NeuN-positive cells) in CA1 after oral Nitarsone; type: in vivo, mouse; conditions: versus vehicle-treated littermates
Procedure: Animals were anesthetized with ketamine/xylazine (Medistar) and transcardially perfused with 0.9% saline followed by 4% PFA. The brains were post-fixed in 4% PFA in PBS overnight, followed by immersion in 0.5 M sucrose for 24 h and then 1M sucrose for another 1 to 2 days or until the brains were sunken down. The brains were snap-frozen and cut into 35 μm thick coronal cryosections (Leica CM3050S, Leica-Microsystems). The sections were blocked in a buffer (0.3% TX-100, 10% NGS in PBS) for 30 min at RT, and incubated with primary antibodies diluted in the blocking solution, overnight at 4° C. Secondary antibodies were applied for 2 h at RT. Sections were counterstained with DAPI and mounted in Mowiol 4-88 (Merck Chemicals). For the detection of Aβ, the heat-based antigen retrieval method was used. […]
All quantifications were done within the distal CA1 region of the hippocampus. […] CREB and pCREB immunoreactivity of every single nucleus in a 100 μm stretch was measured in arbitrary units of pixel intensity. […] The neuronal loss was quantified based on NeuN staining (the number of neurons/CA1 length). For the quantification of microglia and astrocytes the number of cells based on overlaid DAPI and Iba-1 or GFAP signal was quantified within the rectangular ROI. Aβ plaques were counted in the region where the neuronal loss was quantified.

TBA2.1 and 5×FAD mice [3] = experiment: Synaptic density in stratum lacunosum moleculare of CA1 after oral Nitarsone; type: in vivo, mouse
Procedure: Animals were anesthetized with ketamine/xylazine (Medistar) and transcardially perfused with 0.9% saline followed by 4% PFA. The brains were post-fixed in 4% PFA in PBS overnight, followed by immersion in 0.5 M sucrose for 24 h and then 1M sucrose for another 1 to 2 days or until the brains were sunken down. The brains were snap-frozen and cut into 35 μm thick coronal cryosections (Leica CM3050S, Leica-Microsystems). The sections were blocked in a buffer (0.3% TX-100, 10% NGS in PBS) for 30 min at RT, and incubated with primary antibodies diluted in the blocking solution, overnight at 4° C. Secondary antibodies were applied for 2 h at RT. Sections were counterstained with DAPI and mounted in Mowiol 4-88 (Merck Chemicals). For the detection of Aβ, the heat-based antigen retrieval method was used. For anti-Aβ staining, following permeabilization, brain sections were immersed into […] sodium citrate solution (Fluka, pH=9) for 30 min at 80° C. Imaging of nuclear pCREB/CREB immunoreactivities in cryosections was performed using a Leica TCS SP5 system (Leica-Microsystems). Images were acquired sequentially with a HCX ApoL20×/1.0 water objective, optical zoom 4. Sections were imaged with constant laser/detector settings along the z-axis with 400 nm step in a 512×512 pixel format.
. For TBA2.1 mice (both sexes), treatment started at the age of 4 weeks. […]

TBA2.1 and 5×FAD mice [4] = experiment: Y-maze object recognition short-term memory task; type: in vivo, mouse; conditions: 3 h between training and test, versus vehicle
From the text: . For TBA2.1 mice (both sexes), treatment started at the age of 4 weeks. The animals were group housed and force fed for 4 weeks. […] Treatment in 5×FAD male mice started at the age of 12 weeks. Here, animals were single housed right away and given a choice between voluntary and forced feeding. […] During the course of the 7th week of treatment, animals were either subjected to perfusion to obtain their brains for subsequent immunohistochemistry or they were culled to obtained native brains for electrophysiological recordings.
Y-maze Object Recognition short-term memory task was performed according to (Creighton et al., 2019). During training session, two identical objects (3D printed rectangle) were placed at the end of arms B and C and the animal was left to explore both objects for 10 min. In order to assess short-term memory, retrieval performance was tested 3 h after training with one of the familiar objects replaced by a novel one (wooden cube). The mice were placed in the arena, and had 5 min to explore both objects. During both sessions the time animals explored the objects was scored, and a discrimination index was calculated, in the same manner as for the novel object recognition test.

pCREB [5] = experiment: pCREB in motor neurons differentiated from hiPSC (ALS model); type: cell-based, human; conditions: hiPSC-derived motor neurons, treated at day in vitro 56

O=[N+]([O-])c1ccc([As](=O)(O)O)cc1 [Nitarsone, (4-nitrophenyl) arsonic acid]
CREB shutoff induced by Aβ oligomers for 48 h (pCREB [1]; 5 µM co-application, 500 nM Aβ oligomers, 48 h): rescued CREB shutoff
acute Aβ-induced CREB shutoff (pCREB [1]; 10 μM bath application, 30 min prior or 2 h after 500 nM Aβ for 2 h): prevented acute Aβ-induced CREB shutoff
mEPSC amplitude ([2]; co-application of 5 µM Nitarsone with 500 nM Aβ1-42, 48 h): restored mEPSC amplitude
mEPSC amplitude and frequency ([2]; drug alone, 5 µM, 48 h): no effect on both measures
early neuronal cell loss (TBA2.1 mice): reduced
synapse loss in the stratum lacunosum moleculare (TBA2.1 and 5×FAD mice [3]; 5×FAD mice): clearly reduced synapse loss
synapse loss in the stratum lacunosum moleculare (TBA2.1 and 5×FAD mice [3]; TBA2.1 mice): clearly reduced synapse loss
discrimination performance, Y-maze object recognition (TBA2.1 and 5×FAD mice [4]; 5×FAD mice): improved discrimination performance
discrimination performance, Y-maze object recognition (TBA2.1 and 5×FAD mice [4]; TBA2.1 mice): improved discrimination performance
impairment of CREB function (pCREB [5]): rescues the impairment of CREB function
